{"source": "paper PMC6796385", "about": "“Characterizing potential repelling volatiles for “push-pull” strategy against stem borer: a case study in Chilo auricilius” (BMC Genomics, 2019)", "target": "CSP8 (chemosensory protein 8)", "test": "direct fluorescence titration of purified CSP8 with the fluorescent probe, Scatchard plot", "assay_type": "binding, Chilo auricilius", "data": [{"smiles": "c1ccc(Nc2cccc3ccccc23)cc1", "note": "[1-NPN, N-phenyl-1-naphthylamine]", "values": [{"measurement": "Kd", "result": "4 ± 0.13", "unit": "µM"}]}]}
